These results are taken from patent US7008924B1, “VGF fusion polypeptides” (Amgen, Inc., priority 1999, dated 2006).

This experiment has as its system VGF knockout mice. Nature of the experiment: Biological activity of VGF polypeptide in knockout mice (body weight). Type of experiment: in vivo. Conditions: VGF gene knockout mice; intraperitoneal injection of 2 mg twice daily for five days; three of the four treated mice. As for the experimental part:
The biological activity of VGF polypeptides in knockout mice was analyzed using VGF polypeptides synthesized by the Amgen Boulder Peptide Technology group using standard peptide synthesis protocols. Following peptide synthesis, VGF polypeptides from different batches were pooled and lyophilized. The peptide content for each VGF polypeptide was determined by hydrolysis with HCl.
VGF gene knockout mice were obtained from Steve Salton of Mt. Sinai School of Medicine, New York, N.Y. Prior to administration of VGF polypeptide, knockout mice were housed under LD 12:12 conditions (i.e., 12 hours of light and 12 hours of dark). Twenty-four hours before VGF polypeptide injection, knockout mice were individually caged and moved to a temporary housing room where the mice were kept for the remainder of the experiment under LD 12:12 conditions.
VGF polypeptide was administered to knockout mice twice daily (at 9:00 a.m. and 6:00 p.m.) by intraperitoneal injection of 2 mg of VGF-1a (SEQ ID NO: 2; Table I). Prior to injection, VGF-1a polypeptide was diluted to 16% in aCSF Solution Buffer (126.6 mM NaCl, 2.6 mM KCl, 2.0 mM MgCl2 and 1.4 mM CaCl2, 10 mM NaPO4, pH 7.4). Knockout mice were administered VGF-1a polypeptide for five days and the body weight of each mouse was measured daily. The body weight of treated mice was measured daily for three days following the withdrawal of VGF-1a polypeptide.

For the substance “VGF-1a: VGF polypeptide, amino acid sequence AQEEADAEE (listed as Rattus norvegicus)”, the “gain in body weight” value was 10–15%.
